Test results from US20260297042A1, “BIARYLAMIDE DERIVATIVES AND THEIR USE AS PKMYT1 INHIBITORS” (CANCER RESEARCH TECHNOLOGY LIMITED, priority 2023, published 2026).
Structures can show the parent of a compound that is named as a salt.

Columns and labels:
Human PKMYT1 = target: T1, Human PKMYT1 (Homo sapiens, UniProt Q99640); test: PKMYT1 biochemical ADP-Glo enzymatic assay
T1 construct: Human PKMYT1 75-362 was cloned as a TEV cleavable 6xHis fusion; 6xHis (TEV cleavable) (cleaved yes); made in house; host or cells: bacterial cells
T1 sequence (Q99640 75-362): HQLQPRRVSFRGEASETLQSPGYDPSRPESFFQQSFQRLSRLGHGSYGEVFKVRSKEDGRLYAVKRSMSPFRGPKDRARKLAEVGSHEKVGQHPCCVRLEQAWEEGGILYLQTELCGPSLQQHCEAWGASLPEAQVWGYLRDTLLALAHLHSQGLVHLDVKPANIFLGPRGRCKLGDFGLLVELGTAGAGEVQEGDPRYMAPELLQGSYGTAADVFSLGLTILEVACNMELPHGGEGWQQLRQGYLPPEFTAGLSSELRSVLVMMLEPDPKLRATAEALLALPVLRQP
In short: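 IC50 values come from 10-point 3-fold series, with replicates required within 3-fold and r2 >0.9. ADP formed by PKMYT1 intrinsic ATPase (500 uM ATP, 60 min, 26° C.) was quantified by ADP-Glo luminescence. The enzyme was the TEV-cleaved kinase domain 75-362 at 15 nM, in HEPES pH 7.5 buffer.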

KYSE-30 cells = test: Cancer cell line proliferation assay, ATP-based cell viability (Cell Titre Glow), KYSE-30 (normal CCNE1); conditions: Homo sapiens, KYSE-30 cells (normal CCNE1), concentration that achieves 50% cell growth proliferation inhibition, read-out: KYSE30 Gl50
Experimental: (§1) Cancer cell lines with either normal (KYSE-30) or amplified CCNE1 expression (OVCAR 3 —ovarian cancer) were evaluated for their sensitivity to PKMYT1 inhibitors using Cell Titre Glow assay (Promega G7573) as endpoint to assess cell proliferation. The luminescence signal was read on a PHERAStar FS microplate reader (BMG Labtech). Data analysis was performed using Microsoft Excel® and Gl50 (concentration that achieves 50% cell growth proliferation inhibition) estimates generated with GraphPad Prism v9.

OVCAR 3 cells = test: Cancer cell line proliferation assay, ATP-based cell viability (Cell Titre Glow), OVCAR 3 (CCNE1-amplified); conditions: KYSE30 (normal CCNE1) GI50 vs. OVCAR 3 (CCNE1-amplified) GI50
Experimental: as §1

WEE1 = target: T2, WEE1 (Homo sapiens, UniProt P30291); test: Selectivity versus WEE1 assay (ADP-Glo enzymatic assay); type: biochemical; conditions: for IC50: ADP-Glo; for PKMYT1 vs. WEE1 selectivity: fold difference in selectivity for PKMYT1 over WEE1
T2 construct: purchased Thermo Fisher PR7373A
T2 sequence (P30291 whole entry): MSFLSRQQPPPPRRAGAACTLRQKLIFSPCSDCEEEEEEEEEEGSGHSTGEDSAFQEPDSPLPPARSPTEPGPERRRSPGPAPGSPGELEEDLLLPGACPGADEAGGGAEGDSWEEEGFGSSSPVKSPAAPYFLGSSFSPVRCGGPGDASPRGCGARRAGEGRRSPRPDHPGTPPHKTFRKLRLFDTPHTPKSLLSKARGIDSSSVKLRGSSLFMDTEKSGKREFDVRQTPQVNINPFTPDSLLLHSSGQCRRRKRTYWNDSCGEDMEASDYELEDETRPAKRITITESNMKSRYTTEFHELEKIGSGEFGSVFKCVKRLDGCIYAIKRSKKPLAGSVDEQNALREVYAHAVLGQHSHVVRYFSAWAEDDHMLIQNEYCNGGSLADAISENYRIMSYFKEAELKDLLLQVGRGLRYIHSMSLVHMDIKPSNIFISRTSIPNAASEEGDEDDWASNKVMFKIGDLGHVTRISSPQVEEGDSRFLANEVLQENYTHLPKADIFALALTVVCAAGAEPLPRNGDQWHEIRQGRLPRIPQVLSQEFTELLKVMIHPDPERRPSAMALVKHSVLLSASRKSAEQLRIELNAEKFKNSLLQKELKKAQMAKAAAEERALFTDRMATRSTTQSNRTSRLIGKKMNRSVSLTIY
In short: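 ADP-Glo luminescent read-out after a 60-min, 26 °C kinase reaction of 15 nM WEE1 with 30 µM ATP, in HEPES pH 7.5 buffer containing MgCl2, EGTA, Brij-35 and 1% DMSO. IC50 accepted only when replicate values agree within 3-fold and curve fit r2 exceeds 0.9.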

[1] = PKMYT1 kinase domain 15 nM, ADP-Glo, banded values
[2] = ADP-Glo, 15 nM PKMYT1 kinase domain, 500 µM ATP, 60 minutes at 26° C., banded
[3] = 15 nM WEE1, 60 minutes at 26° C., banded
[4] = banded, ">N" = at least in this band but could be higher

SMILES	IC50 (Human PKMYT1; [1]) [µM]	IC50 (WEE1; WEE1 15 nM, banded values) [µM]	PKMYT1 vs. WEE1 selectivity (WEE1; banded)	IC50 (Human PKMYT1; [2]) [µM]	IC50 (WEE1; [3]) [µM]	PKMYT1 vs. WEE1 selectivity (WEE1; [4])	also measured
Cc1c(O)cc(Br)c(C)c1NC(=O)c1cnc(Nc2nn(C3CCS(=O)(=O)C3)c(C)c2Br)s1 (stereo not drawn) [BAA-557, 2-((4-Bromo-1-(1,1-dioxidotetrahydrothiophen-3-yl)-5-methyl-1H-pyrazol-3-yl)amino)-N-(3-bromo-5-hydroxy-2.6-dimethylphenyl)thiazole-5-carboxamide]	1 to 11	–	–	–	–	–	GI50 (KYSE-30 cells): > 5 µM; Selectivity ratio KYSE30 Gl50 vs. OVCAR3 Gl50 (OVCAR 3 cells): Y (>20 fold)
CCCN(C)C(=O)Cn1cc(C)c(Nc2ncc(C(=O)Nc3c(C)ccc(O)c3C)s2)n1 [BAA-491, N-(3-hydroxy-2,6-dimethylphenyl)-2-((4-methyl-1-(2-(methyl(propyl)amino)-2-oxoethyl)-1H-pyrazol-3-yl)amino)thiazole-5-carboxamide]	< 0.05	1 to 11	X (100-<1000 fold)	–	–	–	GI50 (KYSE-30 cells): > 5 µM; Selectivity ratio KYSE30 Gl50 vs. OVCAR3 Gl50 (OVCAR 3 cells): Y (>20 fold)
CCN(C)C(=O)Cn1cc(C)c(Nc2ncc(C(=O)Nc3c(C)ccc(O)c3C)s2)n1 [BAA-489, 2-((1-(2-(ethyl(methyl)amino)-2-oxoethyl)-4-methyl-1H-pyrazol-3-yl)amino)-N-(3-hydroxy-2,6-dimethylphenyl)thiazole-5-carboxamide]	< 0.05	1 to 11	X (100-<1000 fold)	–	–	–	GI50 (KYSE-30 cells): > 5 µM; Selectivity ratio KYSE30 Gl50 vs. OVCAR3 Gl50 (OVCAR 3 cells): Y (>20 fold)
Cc1ccc(NS(=O)(=O)C(C)(C)C)nc1Nc1ncc(C(=O)Nc2c(C)ccc(O)c2C)s1.Cl [BAA-335, 2-((6-((1,1-dimethylethyl)sulfonamido)-3-methylpyridin-2-yl)amino)-N-(3-hydroxy-2,6-dimethylphenyl)thiazole-5-carboxamide hydrochloride]	–	–	–	< 0.05	> 11	Y (1000-5000 fold)	GI50 (KYSE-30 cells): 0.5 to 5 µM; Selectivity ratio KYSE30 Gl50 vs. OVCAR3 Gl50 (OVCAR 3 cells): Y (>20 fold)
Cc1ccc(O)c(C)c1NC(=O)c1cnc(Nc2cc(C(F)(F)F)nc(OCC(F)(F)F)n2)s1 [BAA-318, N-(3-hydroxy-2,6-dimethylphenyl)-2-((2-(2,2,2-trifluoroethoxy)-6-(trifluoromethyl)pyrimidin-4-yl)amino)thiazole-5-carboxamide]	–	–	–	0.05 to 1	> 11	Y (1000-5000 fold)	–
Cc1ccc(O)c(C)c1NC(=O)c1cnc(Nc2ccn(CC(=O)N[C@@H](C)CO)n2)s1 [BAA-165]	–	–	–	< 0.05	> 11	Y (1000-5000 fold)	–
Cc1ccc(O)c(C)c1NC(=O)c1cnc(NC2Cc3ccccc3C2)s1 [BAA-353, 2-((2,3-dihydro-1H-inden-2-yl)amino)-N-(3-hydroxy-2,6-dimethylphenyl)thiazole-5-carboxamide]	–	–	–	1 to 11	> 11	W (10-<100 fold)	–
Cc1ccc(O)c(C)c1NC(=O)c1cnc(Nc2nc3ccccc3s2)s1 [BAA-442, 2-(benzo[d]thiazol-2-ylamino)-N-(3-hydroxy-2,6-dimethylphenyl)thiazole-5-carboxamide]	0.05 to 1	> 11	X (100-<1000 fold)	–	–	–	–
Cc1ccc(O)c(C)c1NC(=O)c1cnc(Nc2cc(C3CC3)n(C)n2)s1 [BAA-245, 2-((5-cyclopropyl-1-methyl-1H-pyrazol-3-yl)amino)-N-(3-hydroxy-2,6-dimethylphenyl)thiazole-5-carboxamide]	–	–	–	< 0.05	> 11	Y (1000-5000 fold)	–
COc1cncnc1Nc1ncc(C(=O)Nc2c(C)ccc(O)c2C)s1 [BAA-559, N-(3-hydroxy-2,6-dimethylphenyl)-2-((5-methoxypyrimidin-4-yl)amino)thiazole-5-carboxamide]	< 0.05	1 to 11	X (100-<1000 fold)	–	–	–	–
Cc1ccc(O)c(C)c1NC(=O)c1cnc(Nc2ccn([C@@H]3CCN(C(=O)C(C)(C)C)C3)n2)s1 [BAA-080, 2-[[1-[(3R)-1-(2.2-Dimethylpropanoyl)pyrrolidin-3-yl]pyrazol-3-yl]amino]-N-(3-hydroxy-2,6-dimethyl-phenyl)thiazole-5-carboxamide]	–	–	–	0.05 to 1	> 11	>X (100-<1000 fold)	–
Cc1ccc(O)c(C)c1NC(=O)c1cnc(Nc2ccn(CC(=O)NCCN3CCCC3)n2)s1 [BAA-167]	–	–	–	0.05 to 1	> 11	X (100-<1000 fold)	–
Cc1ccc(O)c(C)c1NC(=O)c1cnc(Nc2ccn(C)n2)s1 [BAA-004, N-(3-hydroxy-2,6-dimethyl-phenyl)-2-[(1-methylpyrazol-3-yl)amino]thiazole-5-carboxamide]	–	–	–	0.05 to 1	1 to 11	X (100-<1000 fold)	IC50 (Human PKMYT1; PKMYT1 biochemical ADP-Glo enzymatic assay, Comparison Data 2): 0.055 µM; improvement in PKMYT1 IC50 as compared to REF-003 (Human PKMYT1; vs REF-003): 987 fold; improvement in PKMYT1 IC50 as compared to REF-004 (Human PKMYT1; vs REF-004): > 1800 fold
Cc1ccc(O)c(C)c1NC(=O)c1cnc(Nc2ccn(CC(=O)N3CCN(CCO)CC3)n2)s1 [BAA-153]	–	–	–	< 0.05	> 11	Y (1000-5000 fold)	–
Cc1ccc(O)c(C)c1NC(=O)c1cnc(Nc2cc(C)n(C)n2)s1 [BAA-122, 2-[(1,5-dimethylpyrazol-3-yl)amino]-N-(3-hydroxy-2,6-dimethyl-phenyl)thiazole-5-carboxamide]	–	–	–	0.05 to 1	1 to 11	X (100-<1000 fold)	–
COCCN(CCOC)C(=O)Cn1cc(C)c(Nc2ncc(C(=O)Nc3c(C)ccc(O)c3C)s2)n1 [BAA-542, 2-((1-(2-(bis(2-methoxyethyl)amino)-2-oxoethyl)-4-methyl-1H-pyrazol-3-yl)amino)-N-(3-hydroxy-2,6-dimethyl-phenyl)thiazole-5-carboxamide]	< 0.05	> 11	X (100-<1000 fold)	–	–	–	–
Cc1ccc(O)c(C)c1NC(=O)c1cnc(Nc2ccc(C(C)(C)C)cc2)s1 [BAA-281, 2-((4-(tert-butyl)phenyl)amino)-N-(3-hydroxy-2,6-dimethylphenyl)thiazole-5-carboxamide]	–	–	–	0.05 to 1	> 11	X (100-<1000 fold)	–
Cc1ccc(O)c(C)c1NC(=O)c1cnc(Nc2cccc(S(C)(=O)=O)c2)s1 [BAA-276, N-(3-hydroxy-2,6-dimethylphenyl)-2-((3-(methylsulfonyl)phenyl)amino)thiazole-5-carboxamide]	–	–	–	< 0.05	> 11	Y (1000-5000 fold)	–
CCn1cc(C#N)c(Nc2ncc(C(=O)Nc3c(C)ccc(O)c3C)s2)n1 [BAA-573, 2-((4-cyano-1-ethyl-1H-pyrazol-3-yl)amino)-N-(3-hydroxy-2,6-dimethylphenyl)thiazole-5-carboxamide]	< 0.05	> 11	Y (1000-5000 fold)	–	–	–	–
Cc1ccc(O)c(C)c1NC(=O)c1cnc(Nc2ccn([C@@H]3CCN(C(=O)Cc4cccs4)C3)n2)s1 [BAA-098]	–	–	–	0.05 to 1	> 11	>X (100-<1000 fold)	–
Cc1ccc(O)c(C)c1NC(=O)c1cnc(Nc2cnn(C)c2)s1 [BAA-536, N-(3-hydroxy-2,6-dimethylphenyl)-2-((1-methyl-1H-pyrazol-4-yl)amino)thiazole-5-carboxamide hydrochloride]	0.05 to 1	1 to 11	X (100-<1000 fold)	–	–	–	–
Cc1ccc(O)c(C)c1NC(=O)c1cnc(Nc2ccn(CC(=O)N3CCC(F)(F)CC3)n2)s1 [BAA-136, 2-[[1-[2-(4,4-difluoro-1-piperidyl)-2-oxo-ethyl]pyrazol-3-yl]amino]-N-(3-hydroxy-2,6-dimethyl-phenyl)thiazole-5-carboxamide]	–	–	–	< 0.05	> 11	Y (1000-5000 fold)	–
Cc1ccc(O)c(C)c1NC(=O)c1cnc(Nc2ccn([C@@H]3CCN(C(=O)NCc4ccccc4)C3)n2)s1 [BAA-108, 2-[[1-[(3R)-1-(Benzylcarbamoyl)pyrrolidin-3-yl]pyrazol-3-yl]amino]-N-(3-hydroxy-2,6-dimethyl-phenyl)thiazole-5-carboxamide]	–	–	–	< 0.05	> 11	>Y (1000-5000 fold)	–
